We go through one compound from US11104660B2, “PDE4D inhibitors” (TETRA DISCOVERY PARTNERS, INC., priority 2019, dated 2021).

The subject of this test is PDE4D. The test can be described thus: Occupancy of Compound B by PET with Compound A (Lassen plot). The following applies: Compound B 3 mg/kg infusion. Type of test: in vivo, cynomolgus non-human primates (Macaca fascicularis). An excerpt: Two male non-naïve cynomolgus non-human primates (Macaca fascicularis) (“Subject 1” and “Subject 2”) were utilized in this study (7.0 and 5.5 kg). Subjects had previously undergone surgery for placement of arterial access ports for blood collection from the iliac artery. Each subject underwent a brain MR in a Philips 1.5T Intera scanner using a 3D T1 FFE sequence for subsequent registration with PET and application of a cynomolgus brain region of interest atlas for determination of regional time-activity curves. PET scans were conducted in each subject under baseline condition (i.e., Compound A, only) and 15 minutes after a 10 minute infusion of Compound B at 3 mg/kg (i.e. blocking condition). Compound B is a known PDE4D ligand, alternatively referred to as BPN14770.
Volume of distribution (VT) (mL/cm^3) of Compound A was estimated with the 2-tissue compartment (2TC) model and Logan graphical analysis (LGA, t*=30), for baseline and blocking scans, using 90 min of data. VT at baseline and blocking in ROIs were used to compute occupancy of Compound B via the occupancy (Lassen) plot. Time stability of VT estimated from 2TC and LGA models were assessed for both animals from 90 min or 120 minutes of data for baseline and blocking scans.

Each structure is given as a SMILES string.

For `NC(=O)Cc1ccc(Nc2cc(C(F)(F)F)nc(-c3cccc(Cl)c3)n2)cc1` [Compound B], the “Occupancy (%)” value came out at 84% (Subject 1, 2TC); 88% (Subject 1, LGA); 82% (Subject 2, 2TC); 73% (Subject 2, LGA).
